Data from patent US20060051352A1, “CEA binding agents and compositions to reverse CEA-mediated tumorigenic effects on human cancer cells, restore sensitivity to drug induced apoptosis and uses thereof” (priority 2004, published 2006).
Bridge positions count the residues as written; N and C are the ends.

Columns and labels:
[1] = system: human colorectal carcinoma cells; assay: Lung metastases of human colorectal carcinoma cells in nude mice; format: in vivo; conditions: after 30 days; PEG-A20Fab 200 μg iv, Taxol 5 mg/kg ip every 6 days; versus untreated animals
Procedure: Mice were inoculated by intravenous injection of human colorectal carcinoma cells on day 0. Treatment was initiated either immediately following inoculation or 12 hours thereafter. PEGylated A20 Fab fragments (PEG-A20Fab) were administered intravenously (200 μg or 7-8 mg/kg) every day for the first 2 days followed by every 3 days thereafter. Taxol was administered at 5 mg/kg every 6 days (ip). After 30 days, the number of lung surface colonies, representing metastases, were counted.

[2] = system: human colorectal carcinoma cell lines, SW-1222 and LS-180; conditions: A20 Fab 100 μg/ml ex vivo, 0.5 mg/dose iv daily day 3-8; taxol 5 nM ex vivo, 5 mg/kg ip day 4; analysis day 9
Procedure: The efficacy was investigated by a treatment protocol in which the ability of the treated cells to conform to normal colonic tissue architecture and to fail to form tumors, was assessed.
Several experiments were conducted in which the effect on two human colorectal carcinoma cell lines (test cells), when mixed in a defined proportion with normal fetal rat colonic cells and grown as aggregates implanted under the kidney capsule of nude mice, of taxol alone, taxol in combination with irrelevant isotype matched control P3X Fabs, and taxol in combination with A20 Fabs, was compared. The test cells in the “mini-colons” that developed after 7-10 days were assessed for either conformance to normal crypt-like tissue architecture or for formation of tumors (43).
With this in mind, the treatment regimen employed subjecting the test cells to the maximum possible dose over the course of the assay. This regimen included three administrations of A20 Fabs to the test cells in the ex vivo portion of the assay (pre-treatment, during which the aggregates are constructed), followed by daily intravenous injections during the in vivo growth of the implanted aggregates (therapeutic treatment). Pre-treatment of the test cells with A20 Fabs at 100 μg/ml commenced on day 0. […]

[3] = system: CEA-mediated intercellular adhesion; conditions: from references (16), (29); cited from earlier work
[4] = biological target: T1, human carcinoembryonic antigen (CEA), wild type (human, UniProt P06731 35-685, glycophosphatidyl inositol (GPI) membrane anchor); assay: cell-based or functional assay
T1 sequence (looked up): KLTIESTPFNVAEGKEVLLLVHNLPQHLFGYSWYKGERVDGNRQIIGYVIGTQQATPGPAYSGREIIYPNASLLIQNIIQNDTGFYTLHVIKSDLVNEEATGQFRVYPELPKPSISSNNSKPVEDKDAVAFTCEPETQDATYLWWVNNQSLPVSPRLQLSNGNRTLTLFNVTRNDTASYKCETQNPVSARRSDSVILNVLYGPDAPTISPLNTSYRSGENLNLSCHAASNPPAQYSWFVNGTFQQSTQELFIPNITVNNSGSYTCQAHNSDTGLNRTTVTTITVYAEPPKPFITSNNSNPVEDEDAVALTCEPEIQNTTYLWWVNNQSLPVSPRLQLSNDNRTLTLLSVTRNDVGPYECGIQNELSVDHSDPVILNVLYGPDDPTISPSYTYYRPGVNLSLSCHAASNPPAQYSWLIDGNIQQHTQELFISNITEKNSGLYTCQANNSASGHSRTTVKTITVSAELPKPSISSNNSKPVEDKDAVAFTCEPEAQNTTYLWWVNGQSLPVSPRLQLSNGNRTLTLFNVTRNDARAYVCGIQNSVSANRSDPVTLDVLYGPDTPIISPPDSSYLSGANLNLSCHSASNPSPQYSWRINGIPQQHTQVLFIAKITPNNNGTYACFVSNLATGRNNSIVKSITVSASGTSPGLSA

Molecule | release of CEA-imposed myogenic differentiation block, % fusion of L6 (CEA) cells at 100 µM peptide [4] [% fusion] | other results
CC(=O)O[C@H]1C(=O)[C@@]2(C)[C@H]([C@H](OC(=O)c3ccccc3)[C@]3(O)C[C@H](OC(=O)[C@H](O)[C@@H](NC(=O)c4ccccc4)c4ccccc4)C(C)=C1C3(C)C)[C@]1(OC(C)=O)CO[C@@H]1C[C@@H]2O [Taxol, Paclitaxel] |  | number of lung surface colonies [1]: no effect; tumor growth in mini-colons [2]: much larger, more solid and less differentiated
H-CQNDTGC-OH (disulfide 1-7; also: synthetic cyclic peptide) [cyclized peptide representing subdomain 3 of the CEA N domain] |  | inhibition of CEA-mediated intercellular adhesion [3]: effective in inhibiting CEA-mediated intercellular adhesion
H-CQNDTGC-OH (disulfide 1-7; SMILES C[C@@H](O)[C@@H]1NC(=O)[C@H](CC(=O)O)NC(=O)[C@H](CC(N)=O)NC(=O)[C@H](CCC(N)=O)NC(=O)[C@@H](N)CSSC[C@@H](C(=O)O)NC(=O)CNC1=O) [cyclized peptide H-CQNDTGC-OH (subdomain 3)] | 36 | 
H-CGNRQIIC-OH (disulfide 1-8; SMILES CC[C@H](C)[C@@H]1NC(=O)[C@H](CCC(N)=O)NC(=O)[C@H](CCCNC(=N)N)NC(=O)[C@H](CC(N)=O)NC(=O)CNC(=O)[C@@H](N)CSSC[C@@H](C(=O)O)NC(=O)[C@H]([C@@H](C)CC)NC1=O) [cyclized peptide H-CGNRQIIC-OH (subdomain 2)] | 28 | 
H-CGYSWYKC-OH (disulfide 1-8; SMILES NCCCC[C@@H]1NC(=O)[C@H](Cc2ccc(O)cc2)NC(=O)[C@H](Cc2c[nH]c3ccccc23)NC(=O)[C@H](CO)NC(=O)[C@H](Cc2ccc(O)cc2)NC(=O)CNC(=O)[C@@H](N)CSSC[C@@H](C(=O)O)NC1=O) [cyclized peptide H-CGYSWYKC-OH (subdomain 1)] | 18 | 
